Test results: PubChem BioAssay AID328 (DTP/NCI, 2004)
Values joined by “and” are separate entries in the source; they are usually repeats but may differ in a detail not shown here. Equal values may be shown once. Inconclusive results and toxic doses are left out. The calls were made as follows: active = survival T/C of 150% or more; inactive = T/C below 125% in these data.

Test system: BDF1 mice, P388 leukemia ip, median survival T/C
Experiment: NCI In Vivo Anticancer Drug Screen. Data for tumor model P388 Leukemia (intraperitoneal) in B6D2F1 (BDF1) mice
Settings: endpoint: median survival time, higher = longer survival
Procedure, shortened: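 Transplantable tumour in mice; compound vs vehicle dosing; survival scored; ratio of treated to control reported.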

[1] = dose: 50.0 mg/kg/injection, schedule: Q01DX009 (ip), vehicle: saline with Tween-80
[2] = dose: 100.0 mg/kg/injection, schedule: Q01DX009 (ip), vehicle: saline with Tween-80
[3] = dose: 200.0 mg/kg/injection, schedule: Q01DX009 (ip), vehicle: saline with Tween-80
[4] = dose: 25.0 mg/kg/injection, schedule: Q01DX009 (ip), vehicle: saline with Tween-80

Measured: T/C

CN=NNc1ccccc1
inactive: dose: 66.0 mg/kg/injection, schedule: Q04DX003 (ip), vehicle: saline with Tween-80 120 % of control | dose: 75.0 mg/kg/injection, schedule: Q01DX009 (ip), vehicle: other 118 % of control | dose: 75.0 mg/kg/injection, schedule: Q04DX003 (ip), vehicle: saline with Tween-80 120 % of control | dose: 150.0 mg/kg/injection, schedule: Q04DX003 (ip), vehicle: saline with Tween-80 100 % of control | dose: 225.0 mg/kg/injection, schedule: Q04DX003 (ip), vehicle: saline with Tween-80 95 % of control | dose: 300.0 mg/kg/injection, schedule: Q04DX003 (ip), vehicle: saline with Tween-80 100 % of control

N#CN=CN1CC=C(c2ccc(Cl)cc2)CC1
inactive: [1] 98 % of control | [2] 93 % of control | [3] 94 % of control

Cc1cc(-c2ccccc2)[s+]s1
inactive: [4] 122 % of control | [1] 113 % of control | dose: 50.0 mg/kg/injection, schedule: Q04DX003 (ip), vehicle: saline with Tween-80 109 % of control | [2] 117 % of control | dose: 200.0 mg/kg/injection, schedule: Q04DX003 (ip), vehicle: saline with Tween-80 117 % of control | dose: 400.0 mg/kg/injection, schedule: Q04DX003 (ip), vehicle: saline with Tween-80 118 % of control

O=c1[nH]c(=O)n([C@H]2CCCO2)cc1F
inactive: dose: 23.0 mg/kg/injection, schedule: Q01DX009 (ip), vehicle: water 89 % of control | dose: 39.0 mg/kg/injection, schedule: Q01DX009 (ip), vehicle: water 87 % of control | dose: 44.0 mg/kg/injection, schedule: Q01DX009 (ip), vehicle: Klucel (hydroxypropylcellulose) (HPC) 104 % of control and 108 % of control and 109 % of control | dose: 59.0 mg/kg/injection, schedule: Q01DX009 (ip), vehicle: Klucel (hydroxypropylcellulose) (HPC) 100 % of control and 107 % of control and 111 % of control | dose: 65.0 mg/kg/injection, schedule: Q01DX009 (ip), vehicle: water 99 % of control | dose: 65.0 mg/kg/injection, schedule: Q04DX003 (ip), vehicle: water 89 % of control | dose: 75.0 mg/kg/injection, schedule: Q04DX003 (ip), vehicle: other 118 % of control | dose: 90.0 mg/kg/injection, schedule: Q01DX009 (ip), vehicle: Klucel (hydroxypropylcellulose) (HPC) 87 % of control and 104 % of control and 112 % of control | dose: 108.0 mg/kg/injection, schedule: Q01DX009 (ip), vehicle: water 101 % of control | dose: 108.0 mg/kg/injection, schedule: Q04DX003 (ip), vehicle: water 98 % of control | dose: 134.0 mg/kg/injection, schedule: Q01DX009 (ip), vehicle: Klucel (hydroxypropylcellulose) (HPC) 108 % of control and 120 % of control (2×) | dose: 142.0 mg/kg/injection, schedule: Q04DX003 (ip), vehicle: Klucel (hydroxypropylcellulose) (HPC) 103 % of control and 109 % of control and 110 % of control | dose: 150.0 mg/kg/injection, schedule: Q04DX003 (ip), vehicle: other 118 % of control | dose: 180.0 mg/kg/injection, schedule: Q01DX009 (ip), vehicle: water 89 % of control | dose: 180.0 mg/kg/injection, schedule: Q04DX003 (ip), vehicle: water 96 % of control | dose: 189.0 mg/kg/injection, schedule: Q04DX003 (ip), vehicle: Klucel (hydroxypropylcellulose) (HPC) 105 % of control and 113 % of control and 117 % of control | dose: 201.0 mg/kg/injection, schedule: Q01DX009 (ip), vehicle: Klucel (hydroxypropylcellulose) (HPC) 102 % of control and 111 % of control | dose: 288.0 mg/kg/injection, schedule: Q04DX003 (ip), vehicle: Klucel (hydroxypropylcellulose) (HPC) 109 % of control and 112 % of control and 118 % of control | dose: 300.0 mg/kg/injection, schedule: Q04DX003 (ip), vehicle: other 118 % of control | dose: 300.0 mg/kg/injection, schedule: Q04DX003 (ip), vehicle: water 100 % of control | dose: 316.0 mg/kg/injection, schedule: Q01DX001 (ip), vehicle: Klucel (hydroxypropylcellulose) (HPC) 104 % of control (2×) and 109 % of control | dose: 421.0 mg/kg/injection, schedule: Q01DX001 (ip), vehicle: Klucel (hydroxypropylcellulose) (HPC) 109 % of control and 111 % of control and 123 % of control | dose: 430.0 mg/kg/injection, schedule: Q04DX003 (ip), vehicle: Klucel (hydroxypropylcellulose) (HPC) 109 % of control and 110 % of control and 113 % of control | dose: 500.0 mg/kg/injection, schedule: Q04DX003 (ip), vehicle: water 92 % of control | dose: 600.0 mg/kg/injection, schedule: Q04DX003 (ip), vehicle: other 95 % of control | dose: 641.0 mg/kg/injection, schedule: Q01DX001 (ip), vehicle: Klucel (hydroxypropylcellulose) (HPC) 104 % of control and 118 % of control and 124 % of control | dose: 645.0 mg/kg/injection, schedule: Q04DX003 (ip), vehicle: Klucel (hydroxypropylcellulose) (HPC) 111 % of control and 114 % of control | dose: 957.0 mg/kg/injection, schedule: Q01DX001 (ip), vehicle: Klucel (hydroxypropylcellulose) (HPC) 104 % of control and 123 % of control | dose: 1200.0 mg/kg/injection, schedule: Q04DX003 (ip), vehicle: other 90 % of control | dose: 1436.0 mg/kg/injection, schedule: Q01DX001 (ip), vehicle: Klucel (hydroxypropylcellulose) (HPC) 105 % of control and 117 % of control

Cc1cc(O)c(C(c2ccccn2)c2c(O)cc(C)[nH]c2=O)c(=O)[nH]1
inactive: dose: 12.5 mg/kg/injection, schedule: Q01DX009 (ip), vehicle: saline with Tween-80 95 % of control | [4] 90 % of control | [1] 100 % of control

CCCCCCCCCCCC(=O)CCCCC
inactive: dose: 100.0 mg/kg/injection, schedule: Q04DX003 (ip), vehicle: other 100 % of control | dose: 200.0 mg/kg/injection, schedule: Q04DX003 (ip), vehicle: other 100 % of control | dose: 400.0 mg/kg/injection, schedule: Q04DX003 (ip), vehicle: other 104 % of control

CS(=O)c1ncc2cnccn12 (stereo not drawn)
inactive: dose: 25.0 mg/kg/injection, schedule: Q04DX003 (ip), vehicle: water 108 % of control | dose: 50.0 mg/kg/injection, schedule: Q04DX003 (ip), vehicle: water 100 % of control | dose: 100.0 mg/kg/injection, schedule: Q01DX009 (ip), vehicle: water 104 % of control | dose: 100.0 mg/kg/injection, schedule: Q04DX003 (ip), vehicle: water 108 % of control | dose: 200.0 mg/kg/injection, schedule: Q01DX009 (ip), vehicle: water 106 % of control

NS(=O)(=O)c1ccc(Cl)cc1
inactive: dose: 25.0 mg/kg/injection, schedule: Q01DX009 (ip), vehicle: saline 113 % of control | dose: 50.0 mg/kg/injection, schedule: Q01DX009 (ip), vehicle: saline 109 % of control | dose: 75.0 mg/kg/injection, schedule: Q04DX003 (ip), vehicle: saline 100 % of control | dose: 100.0 mg/kg/injection, schedule: Q01DX009 (ip), vehicle: saline 86 % of control | dose: 150.0 mg/kg/injection, schedule: Q04DX003 (ip), vehicle: saline 109 % of control | dose: 300.0 mg/kg/injection, schedule: Q04DX003 (ip), vehicle: saline 109 % of control

Cc1cc(C)c(CCO)c(C)c1
inactive: dose: 0.37 mg/kg/injection, schedule: Q01DX009 (ip), vehicle: DMSO 113 % of control | dose: 0.75 mg/kg/injection, schedule: Q01DX009 (ip), vehicle: DMSO 113 % of control | dose: 1.5 mg/kg/injection, schedule: Q01DX009 (ip), vehicle: DMSO 95 % of control | dose: 3.0 mg/kg/injection, schedule: Q01DX009 (ip), vehicle: DMSO 88 % of control and 109 % of control | dose: 12.0 mg/kg/injection, schedule: Q01DX009 (ip), vehicle: DMSO 92 % of control | dose: 25.0 mg/kg/injection, schedule: Q04DX003 (ip), vehicle: DMSO 88 % of control | dose: 50.0 mg/kg/injection, schedule: Q04DX003 (ip), vehicle: DMSO 88 % of control

CCN(c1ccccc1)c1ccc(C=O)cc1
inactive: dose: 100.0 mg/kg/injection, schedule: Q04DX003 (ip), vehicle: Klucel (hydroxypropylcellulose) (HPC) 94 % of control | dose: 200.0 mg/kg/injection, schedule: Q04DX003 (ip), vehicle: Klucel (hydroxypropylcellulose) (HPC) 100 % of control

CCN(CC)CCNC1=CC(=S)NC(C)(C)C1
inactive: [4] 101 % of control | [1] 89 % of control and 111 % of control | [2] 100 % of control | [3] 88 % of control and 117 % of control

CC(NC1=NCCO1)c1cccc2ccccc12 (stereo not drawn)
inactive: dose: 100.0 mg/kg/injection, schedule: Q01DX001 (ip), vehicle: saline with Tween-80 91 % of control | dose: 200.0 mg/kg/injection, schedule: Q01DX001 (ip), vehicle: saline with Tween-80 91 % of control | dose: 400.0 mg/kg/injection, schedule: Q01DX001 (ip), vehicle: saline with Tween-80 91 % of control
